# Results published in EP4772507A1, “AZAINDOLE COMPOUND AND MEDICAL DRUG” (Nippon Shinyaku Co., Ltd., priority 2023, dated 2025).
# Experiments:
# [1] = target: T1, C-terminal catalytic domain of MALT1 (amino acid residues 329-824) (Homo sapiens, UniProt Q9UDY8); experiment: MALT1 protease inhibitory activity (enzyme activity inhibition assay, fluorogenic substrate); assay type: biochemical; conditions: substrate Ac-Leu-Arg-Ser-Arg-AMC 50 µM; 30°C for 2 hours; fluorescence
# T1 construct: C-terminal catalytic domain of MALT1 (amino acid residues 329-824)
# T1 sequence (Q9UDY8 329-824): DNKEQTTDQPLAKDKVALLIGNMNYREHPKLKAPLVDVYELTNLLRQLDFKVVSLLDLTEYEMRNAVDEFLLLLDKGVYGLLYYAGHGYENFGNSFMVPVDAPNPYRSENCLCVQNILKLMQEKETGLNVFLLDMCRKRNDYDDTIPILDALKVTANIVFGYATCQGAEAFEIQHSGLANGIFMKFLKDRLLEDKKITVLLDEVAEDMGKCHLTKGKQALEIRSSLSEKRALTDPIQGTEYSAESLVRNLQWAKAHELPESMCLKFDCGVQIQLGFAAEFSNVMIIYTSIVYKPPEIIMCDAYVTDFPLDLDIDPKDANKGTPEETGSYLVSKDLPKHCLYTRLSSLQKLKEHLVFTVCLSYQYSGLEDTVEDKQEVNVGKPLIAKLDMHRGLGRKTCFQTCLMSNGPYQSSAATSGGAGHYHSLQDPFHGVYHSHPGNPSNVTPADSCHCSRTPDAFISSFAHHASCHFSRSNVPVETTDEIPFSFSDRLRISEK
# Experimental: To evaluate the enzyme inhibitory activity of a test substance against MALT1, an enzyme activity inhibition assay was conducted using the C-terminal catalytic domain of MALT1 (amino acid residues 329-824).
# A test substance was prepared at a concentration of 10 mM in dimethyl sulfoxide (DMSO) and further diluted with DMSO to obtain final concentrations of 1000, 100, 10, 1, and 0.1 µM. The solutions were further diluted 25-fold with an assay buffer to prepare final test substance solutions. The composition of the assay buffer was 200 mM Tris/HCl HEPES (pH 7.5), 0.8 M Na citrate, 100 µM DTT, and 0.05% CHAPS.
# The test substance solution was added to a 384-well black plate (#6007270, PerkinElmer) in an amount of 5 µL per well (n = 2; final concentrations of 10000, 1000, 100, 10, 1, and 0.1 nM), followed by the addition of 10 µL of MALT1 enzyme and finally 5 µL of a substrate solution (Ac-Leu-Arg-Ser-Arg-AMC, Peptide Institute, Inc.; final concentration in the reaction mixture: 50 µM), and after stirring, the mixture was allowed to react at 30°C for 2 hours. Fluorescence (excitation: 380 nm, emission: 460 nm) was detected using a microplate reader (EnVision, PerkinElmer).
# Using the measurement data, non-linear regression analysis based on a 2-parameter logistic model was performed with Spotfire (PerkinElmer) to calculate IC50.
# [2] = test system: HEK293/API2-MALT1/NF-κB reporter cells; experiment: Inhibition of reporter activity in HEK293/API2-MALT1/NF-κB reporter cells; assay type: cell-based; conditions: Homo sapiens, 24 hours with test substance, One-glo luminescence
# Experimental: The API2-MALT1 fusion protein, expressed in MALT lymphoma, is known to constitutively activate the NF-κB pathway. To evaluate the inhibitory effect of the test substance on the NF-κB pathway in cells, a reporter activity inhibition test was conducted using HEK293/API2-MALT1/NF-κB reporter cells.
# (§1) The test substance was prepared at a concentration of 10 mM in dimethyl sulfoxide (DMSO) and further diluted with DMSO to each of concentrations of 1000, 300, 100, and 10 µM. The solutions were further diluted 100-fold with DMEM medium containing 10% FBS to prepare test substance solutions.
# HEK293/API2-MALT1/NF-κB reporter cells and 293T/CMV reporter cells (used as a negative control) were cultured in DMEM medium containing 10% FBS. Into a 384-well plate (#781080, Greiner), 6,000 cells were seeded in 30 µL per well, and after culturing for 24 hours, 3.3 µL of the adjusted test substance solution was added thereto (final concentrations: 10,000, 1,000, 100, and 10 nM). After culturing for 24 hours at 37°C in a 5% CO2 incubator, 33 µL of One-glo (Promega) was added to each well. After a 5-minute incubation at room temperature, luminescence was detected using a microplate reader (EnVision, PerkinElmer).
# Using the measurement data, non-linear regression analysis was performed with the SAS system (SAS Institute Inc.) to estimate IC50.
# [3] = test system: OCI-Ly3 cell lines; experiment: Proliferation inhibition test, ABC-DLBCL cell line OCI-Ly3; assay type: cell-based; conditions: Homo sapiens; OCI-Ly3 (ABC-DLBCL, NF-κB pathway-dependent); 96 hours; Cell Counting Kit-8; read-out: Proliferation inhibitory activity against OCI-Ly3 IC50
# Experimental: (§2) In ABC-DLBCL cell lines, the NF-κB pathway is constitutively activated due to mutations in the B-cell receptor pathway. To evaluate the proliferation inhibitory activity associated with the MALT1 inhibitory activity of the test substance, a proliferation inhibition test was conducted using ABC-DLBCL cell lines.
# as §1, with “3,000, 1,000,” for “1000,”, “100, 30,” for “100,”, “IMDM” for “DMEM”
# (§3) OCI-Ly3 cell lines (ABC-DLBCL, NF-κB pathway-dependent) were cultured in IMDM containing 10% FBS, and SU-DHL-4 cell lines (GCB-DLBCL, NF-κB pathway-independent, used as a negative control) were cultured in RPMI-1640 containing 10% FBS. Into a 96-well plate, 2,000 cells of the OCI-Ly3 cell line and 4,000 cells of the SU-DHL-4 cell line were seeded in 100 µL per well, and 11 µL of the adjusted test substance solution was added thereto (final concentrations: 10,000, 3,000, 1,000, 300, 100, 30, and 10 nM). After 96 hours of incubation at 37°C in a 5% CO2 incubator, 10 µL of Cell Counting Kit-8 (Dojindo Laboratories) was added to each well. After 4 hours of incubation at 37°C, absorbance at 450 nm was detected using a microplate reader (EnVision, PerkinElmer).
# (§4) Using the measurement data, non-linear regression analysis based on a 2-parameter logistic model was performed with Spotfire (PerkinElmer) to estimate IC50 values.
# [4] = test system: SU-DHL-4 cell lines; experiment: Proliferation inhibition test, GCB-DLBCL cell line SU-DHL-4 (negative control line); assay type: cell-based; conditions: Homo sapiens; SU-DHL-4 (GCB-DLBCL, NF-κB pathway-independent, negative control); 96 hours; Cell Counting Kit-8; read-out: Proliferation inhibitory activity against SU-DHL-4 IC50
# Experimental: as §2
# as §1, with “3,000, 1,000,” for “1000,”, “100, 30,” for “100,”, “IMDM” for “DMEM”
# as §3, §4
# [5] = Central nervous system (CNS) penetration study in mice; assay type: in vivo; conditions: female, BALB/cCrSlc, mouse, ip, 30 mg/kg intraperitoneally, three hours later, cerebrum and plasma by LC-MS/MS, read-out: Brain-to-plasma concentration ratio (Kp value)
# Experimental: To evaluate the central nervous system (CNS) penetration of a test substance, a central nervous system penetration study was conducted using mice.
# Six-week-old female BALB/cCrSlc mice (Japan SLC) were used. The test substance suspended in 0.5% methylcellulose was intraperitoneally administered to mice at a dose of 30 mg/kg. Three hours later, blood was collected from the abdominal vena cava under isoflurane anesthesia, and plasma was obtained by centrifugation. After exsanguination from the abdominal vena cava, the cerebrum was collected.
# The drug concentrations of the collected plasma and cerebrum were measured by LC-MS/MS. To determine the brain penetration of the drug, the brain-to-plasma concentration ratio (Kp value) was calculated.
IC50 [1],IC50 [3],IC50 [4],Kp at 3 h [5],SMILES,IC50 [2]
43 nM,580 nM,6300 nM,0.73,"C[C@@H]1CC(C(=O)c2cn(CC#N)c3nc(-n4nccn4)c(Cl)cc23)C[C@@H](C)N1c1ncc(F)cc1I (stereo partly drawn) [Example 3, {5-chloro-3-[(2R,6R)-1-(5-fluoro-3-iodopyridin-2-yl)-2,6-dimethylpiperidin-4-carbonyl]-6-(2H-1,2,3-triazol-2-yl)-1H-pyrrolo[2,3-b]pyridin-1-yl}acetonitrile]",200 nM
45 nM,620 nM,5400 nM,1.6,"C[C@@H]1CC(C(=O)c2cn(C3COC3)c3nc(-n4nccn4)c(Cl)cc23)C[C@@H](C)N1c1ncc(F)cc1I (stereo partly drawn) [Example 1, [5-chloro-1-(oxetan-3-yl)-6-(2H-1,2,3-triazol-2-yl)-1H-pyrrolo[2,3-b]pyridin-3-yl][(2R,6R)-1-(5-fluoro-3-iodopyridin-2-yl)-2,6-dimethylpiperidin-4-yl]methanone]",170 nM
160 nM,690 nM,6700 nM,0.26,"CC(C)n1cc(C(=O)C2C[C@@H](C)N(c3ncc(F)cc3I)[C@H](C)C2)c2cc(Cl)c(-n3nccn3)nc21 (stereo partly drawn) [Example 17, [5-chloro-1-isopropyl-6-(2H-1,2,3-triazol-2-yl)-1H-pyrrolo[2,3-b]pyridin-3-yl][(2R,6R)-1-(5-fluoro-3-iodopyridin-2-yl)-2,6-dimethylpiperidin-4-yl]methanone]",300 nM
18 nM,300 nM,7200 nM,1.2,"C[C@@H]1CC(C(=O)c2cn(C)c3nc(-n4nccn4)c(Cl)cc23)C[C@@H](C)N1c1ncc(F)cc1I (stereo partly drawn) [Example 2, [5-chloro-1-methyl-6-(2H-1,2,3-triazol-2-yl)-1H-pyrrolo[2,3-b]pyridin-3-yl][(2R,6R)-1-(5-fluoro-3-iodopyridin-2-yl)-2,6-dimethylpiperidin-4-yl]methanone]",60 nM
24 nM,610 nM,> 10000 nM,1.75,"Cn1cc(C(=O)c2cnn(-c3cccc4nnsc34)c2C(F)(F)F)c2cc(Cl)c(-n3nccn3)nc21 [Example 28, [1-(1,2,3-benzothiadiazol-7-yl)-5-(trifluoromethyl)-1H-pyrazol-4-yl][5-chloro-1-methyl-6-(2H-1,2,3-triazol-2-yl)-1H-pyrrolo[2,3-b]pyridin-3-yl]methanone]",440 nM
65 nM,480 nM,6700 nM,0.63,"CCn1cc(C(=O)C2C[C@@H](C)N(c3ncc(F)cc3I)[C@H](C)C2)c2cc(Cl)c(-c3ncccn3)nc21 (stereo partly drawn) [Example 18, [5-chloro-1-ethyl-6-(pyrimidin-2-yl)-1H-pyrrolo[2,3-b]pyridin-3-yl][(2R,6R)-1-(5-fluoro-3-iodopyridin-2-yl)-2,6-dimethylpiperidin-4-yl]methanone]",100 nM
39 nM,110 nM,2400 nM,0.52,"CCCn1cc(C(=O)c2cnn(-c3cncc4c(F)cccc34)c2C(F)(F)F)c2cc(Cl)c(-n3nccn3)nc21 [Example 8, [5-chloro-1-propyl-6-(2H-1,2,3-triazol-2-yl)-1H-pyrrolo[2,3-b]pyridin-3-yl][1-(8-fluoroisoquinolin-4-yl)-5-(trifluoromethyl)-1H-pyrazol-4-yl]methanone]",280 nM
35 nM,310 nM,3600 nM,0.12,"CC(=O)N1CC(n2cc(C(=O)C3C[C@@H](C)N(c4ncc(F)cc4I)[C@H](C)C3)c3cc(Cl)c(-n4nccn4)nc32)C1 (stereo partly drawn) [Example 5, 1-(3-{5-chloro-3-[(2R,6R)-1-(5-fluoro-3-iodopyridin-2-yl)-2,6-dimethylpiperidin-4-carbonyl]-6-(2H-1,2,3-triazol-2-yl)-1H-pyrrolo[2,3-b]pyridin-1-yl}azetidin-1-yl)ethan-1-one]",160 nM
17 nM,1000 nM,> 10000 nM,0.98,"Cn1cc(C(=O)c2cnn(-c3cccc4nnsc34)c2C(F)(F)F)c2cc(Cl)c(-c3ncccn3)nc21 [Example 29, [1-(1,2,3-benzothiadiazol-7-yl)-5-(trifluoromethyl)-1H-pyrazol-4-yl][5-chloro-1-methyl-6-(pyrimidin-2-yl)-1H-pyrrolo[2,3-b]pyridin-3-yl]methanone]",220 nM

SMILES,IC50 [1],IC50 [3],IC50 [4],Kp at 3 h [5],IC50 [2]
"C[C@@H]1CC(C(=O)c2cn(CCCO)c3nc(-c4ncccn4)c(Cl)cc23)C[C@@H](C)N1c1ncc(F)cc1I (stereo partly drawn) [Example 9, [5-chloro-1-(3-hydroxypropyl)-6-(pyrimidin-2-yl)-1H-pyrrolo[2,3-b]pyridin-3-yl][(2R,6R)-1-(5-fluoro-3-iodopyridin-2-yl)-2,6-dimethylpiperidin-4-yl]methanone]",69 nM,480 nM,5100 nM,1.4,140 nM
